Target: T1, mineralo-corticoid receptor of the rat kidney (Rattus norvegicus, UniProt P22199)
T1 construct: The kidneys were then removed, decapsulated and homogenized at 0° C; from tissue; host or cells: kidney of adrenalectomized male Sprague-Dawley EOPS rats, 105,000 g supernatant (cytosol)
T1 sequence (P22199 1-981): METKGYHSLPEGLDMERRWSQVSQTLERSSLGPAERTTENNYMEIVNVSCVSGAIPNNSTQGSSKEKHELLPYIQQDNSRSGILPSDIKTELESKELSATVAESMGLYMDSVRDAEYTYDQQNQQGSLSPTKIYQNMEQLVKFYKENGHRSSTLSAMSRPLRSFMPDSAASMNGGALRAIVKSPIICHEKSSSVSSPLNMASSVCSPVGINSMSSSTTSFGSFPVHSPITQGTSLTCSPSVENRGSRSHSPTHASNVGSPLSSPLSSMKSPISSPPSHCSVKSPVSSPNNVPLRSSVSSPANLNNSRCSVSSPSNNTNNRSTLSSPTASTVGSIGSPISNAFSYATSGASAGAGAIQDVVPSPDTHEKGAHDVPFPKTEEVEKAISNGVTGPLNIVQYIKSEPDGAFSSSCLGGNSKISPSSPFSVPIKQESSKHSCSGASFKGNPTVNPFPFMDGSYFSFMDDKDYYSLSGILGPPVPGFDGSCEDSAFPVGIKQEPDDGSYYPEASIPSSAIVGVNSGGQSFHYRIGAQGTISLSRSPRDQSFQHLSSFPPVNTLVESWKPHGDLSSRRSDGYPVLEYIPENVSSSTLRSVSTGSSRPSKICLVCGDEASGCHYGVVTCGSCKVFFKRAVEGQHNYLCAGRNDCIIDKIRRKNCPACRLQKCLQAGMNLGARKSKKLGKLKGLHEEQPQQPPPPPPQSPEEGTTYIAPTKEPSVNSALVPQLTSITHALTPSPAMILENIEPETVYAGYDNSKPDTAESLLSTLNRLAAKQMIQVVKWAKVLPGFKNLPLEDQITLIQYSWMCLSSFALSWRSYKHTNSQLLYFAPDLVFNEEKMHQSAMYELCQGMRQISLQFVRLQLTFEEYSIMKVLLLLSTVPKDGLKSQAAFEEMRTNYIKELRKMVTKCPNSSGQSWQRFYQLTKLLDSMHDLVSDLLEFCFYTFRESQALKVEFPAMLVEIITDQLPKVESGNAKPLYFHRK
Assay: Anti-aldosterone activity: displacement of tritiated aldosterone from the mineralo-corticoid receptor of the rat kidney (relative liaison affinity)
Type: binding
Details: vs cold aldosterone as reference hormone, rat kidney cytosol
Method: Study of the anti-aldosterone activity of the mineralo-corticoid receptor of the rat kidney
Male Sprague-Dawley EOPS rats weighing 140 to 160 g, suprarenalectomized 4 to 6 days earlier, were killed and their kidneys were perfused in situ with 50 ml of Tris 10 mM-saccharose 0.25M buffer, HCl pH 7.4. The kidneys were then removed, decapsulated and homogenized at 0° C. with a Potter polytetrafluoroethylene glass (1 g of tissue for 3 ml of buffer). The homogenate was centrifuged for 10 minutes at 800 g at 0° C. To eliminate the fixation of the tritiated aldosterone on the glucocorticoid receptor, 11β,17β-dihydroxy-17α-(1-propynyl)-Δ^1,4,6 -androstatrien-3-one which fixes uniquely on the glucocorticoid receptor was added to the supernatant at a final concentration of 10^-6 M. This supernatant was ultracentrifuged at 105,000 g for 60 minutes at 0° C. and aliquots of the supernatant were incubated at 0° C. with a constant concentration (T) of tritiated aldosterone in the presence of increasing concentrations (0-2500×10^-9 M) of cold aldosterone or of the cold product under study. After an incubation time (t), the concentration of tritiated aldosterone bound (B) was measured by the technique of adsorption on charcoal-dextran.
The calculation of the relative liaison affinity (RLA) was carried out as follows: The two following curves were drawn: the percentage of tritiated hormone bonded B/T as a function of the logarithm of the concentration of the cold reference hormone, and B/T as a function of the logarithm of the concentration of the cold product under test. The straight line of the equation I50 =(B/T max+B/T min)/2 was determine B/T max=percentage of the tritiated hormone bonded for an incubation of this triated hormone at the concentration (T), B/T min=percentage of the tritiated hormone bonded for an incubation of this tritiated hormone at the concentration (T) in the presence of a great excess of cold hormone (2500.10^-9 M). The intersections of the straight line I50 and the curves enabled the concentrations of the cold reference hormone (CH) and of the cold product tested (CX) to be evaluated which inhibited by 50% the bonding of the tritiated hormone on the receptor. The relative liaison affinity (RAL) of the product tested is determined by the equation: [formula] The following results were obtained;

[1] = incubation time at 0° C.: 1 hour
[2] = incubation time at 0° C.: 24 hours

Compound	relative liaison affinity (RLA) [1]	relative liaison affinity (RLA) [2]
CC#C[C@]12CCC(=O)C=C1CC[C@@H]1[C@@H]2CC[C@@]2(C)[C@H]1CC[C@@]21CCC(=O)O1 [Example 3, γ-lactone of 17β-hydroxy-3-oxo-10β-(1-propynyl)-19-nor-17α-Δ^4-pregnene-21-carboxylic acid]	50	43
C#C[C@]12CCC(=O)C=C1CC[C@@H]1[C@@H]2CC[C@@]2(C)[C@H]1CC[C@@]21CCC(=O)O1 [Example 1, Gamma-lactone of 10β-ethynyl-17β-hydroxy-3-oxo-19-nor-17α-Δ^4-pregnen 21-carboxylic acid]	125	65
